Test results published in DBAASP.
≈ marks a conversion by molar mass, not a printed value.

Columns and labels:
Assay in all cases: ≥ marks a high value that may be exact or a test limit, other limits are often not marked, values filed in µg/mL are converted to µM
[1] = tested on: Escherichia coli ATCC 25922
[2] = tested on: Candida albicans ATCC 2002
[3] = tested on: Staphylococcus aureus ATCC 25923
[4] = tested on: Pseudomonas aeruginosa CMCCB 10104
[5] = tested on: Klebsiella pneumoniae ATCC 13883
[6] = tested on: Staphylococcus aureus USA 300
[7] = tested on: Pseudomonas aeruginosa PAO1

Row | SMILES | MIC [1] | MIC [2] | MIC [3] | MIC [4] | MIC [5] | MIC [6] | MIC [7]
1 | CC[C@H](C)[C@H](N)C(=O)N[C@@H](CC(=O)O)C(=O)N1CCC[C@H]1C(=O)N[C@@H](Cc1ccccc1)C(=O)N[C@H](C(=O)N[C@@H](C)C(=O)NCC(=O)N[C@H](C(=O)N[C@@H](C)C(=O)N[C@@H](C)C(=O)N[C@@H](CCC(=O)O)C(=O)N[C@@H](CCSC)C(=O)N[C@@H](CCSC)C(=O)N[C@@H](CCC(N)=O)C(=O)N[C@@H](Cc1cnc[nH]1)C(=O)N[C@H](C(=O)N[C@@H](Cc1ccc(O)cc1)C(=O)N[C@H]1CSSC[C@@H](C(=O)O)NC(=O)[C@H](CCCCN)NC(=O)[C@H](CCCCN)NC(=O)[C@H](CO)NC(=O)[C@H](C)NC(=O)[C@H](C)NC1=O)C(C)C)C(C)C)C(C)C [IDPFVAGVAAEMMQHVYCAASKKC] | 3.54 µM (≈ 9.09 µg/mL) | 7.08 µM (≈ 18.2 µg/mL) | 7.08 µM (≈ 18.2 µg/mL) | 7.08 µM (≈ 18.2 µg/mL) |  |  | 
2 | CC[C@H](C)[C@H](N)C(=O)N[C@H](C(=O)N1CCC[C@H]1C(=O)N[C@@H](Cc1ccccc1)C(=O)N[C@H](C(=O)N[C@@H](C)C(=O)NCC(=O)N[C@H](C(=O)N[C@@H](C)C(=O)N[C@@H](C)C(=O)N[C@@H](CCC(=O)O)C(=O)N[C@@H](CCSC)C(=O)N[C@@H](CCSC)C(=O)N[C@@H](CCC(=O)O)C(=O)N[C@@H](Cc1cnc[nH]1)C(=O)N[C@H](C(=O)N[C@@H](Cc1ccc(O)cc1)C(=O)N[C@H]1CSSC[C@@H](C(=O)O)NC(=O)[C@H](CCCCN)NC(=O)[C@H](CCCCN)NC(=O)[C@H](CO)NC(=O)[C@H](C)NC(=O)[C@H](C)NC1=O)C(C)C)C(C)C)C(C)C)[C@@H](C)CC [IIPFVAGVAAEMMEHVYCAASKKC] | 4.32 µM (≈ 11.1 µg/mL) | 4.32 µM (≈ 11.1 µg/mL) | 8.64 µM (≈ 22.2 µg/mL) | 8.64 µM (≈ 22.2 µg/mL) |  |  | 
3 | CC(C)C[C@H](NC(=O)[C@H](CC(C)C)NC(=O)[C@H](CCCCN)NC(=O)CNC(=O)[C@H](CC(C)C)NC(=O)[C@H](CC(C)C)NC(=O)[C@H](CO)NC(=O)[C@H](CC(C)C)NC(=O)[C@H](C)NC(=O)[C@H](CO)NC(=O)[C@H](CC(C)C)NC(=O)[C@H](CC(C)C)NC(=O)CN)C(N)=O [GLLSALSLLGKLL] | 3.1 µM (≈ 4.02 µg/mL) |  |  |  | 3.1 µM (≈ 4.02 µg/mL) | 0.78 µM (≈ 1.01 µg/mL) | > 25 µM

Second part, the compound after the results:

Row | MIC [1] | MIC [2] | MIC [3] | MIC [4] | MIC [5] | MIC [6] | MIC [7] | SMILES
4 | > 82.4 µM | ≥ 82.4 µM | > 82.4 µM | ≥ 82.4 µM |  |  |  | CC(C)C[C@@H]1NC(=O)[C@H](CCCCN)NC(=O)[C@H](CC(=O)O)NC(=O)[C@H](CC(N)=O)NC(=O)[C@H](Cc2ccc(O)cc2)NC(=O)[C@@H](NC(=O)[C@H](CCCCN)NC(=O)[C@@H]2CCCN2C(=O)[C@H](C)NC(=O)[C@H](CCCCN)NC(=O)[C@H](CS)NC(=O)[C@H](CCCCN)NC(=O)[C@H](CC(C)C)NC(=O)[C@H](CCCCN)NC(=O)[C@H](CC(C)C)NC(=O)[C@H](CCCCN)NC(=O)[C@H](CCC(=O)O)NC(=O)[C@@H](N)CCCCN)CSSC[C@@H](C(=O)N[C@H](C(=O)O)[C@@H](C)O)NC(=O)[C@H](C)NC1=O [KEKLKLKCKAPKCYNDKLACT]
5 | > 111 µM | ≥ 111 µM | > 111 µM | ≥ 111 µM |  |  |  | CC(C)[C@H](N)C(=O)N[C@H](C(=O)N[C@@H](CCCCN)C(=O)N[C@@H](Cc1ccccc1)C(=O)N[C@@H](CO)C(=O)N[C@@H](Cc1ccc(O)cc1)C(=O)N[C@@H](CCCN=C(N)N)C(=O)N[C@@H](CCCCN)C(=O)NCC(=O)N[C@@H](CO)C(=O)N1CCC[C@H]1C(=O)N[C@@H](C)C(=O)N1CCC[C@H]1C(=O)N[C@@H](CCC(N)=O)C(=O)N[C@@H](CCCCN)C(=O)N[C@@H](CC(N)=O)C(=O)O)C(C)C [VVKFSYRKGSPAPQKN]
6 | 5.92 µM (≈ 15.2 µg/mL) | 2.96 µM (≈ 7.59 µg/mL) | 5.92 µM (≈ 15.2 µg/mL) | 11.8 µM (≈ 30.4 µg/mL) |  |  |  | CC[C@H](C)[C@H](N)C(=O)N[C@@H](CC(C)C)C(=O)N1CCC[C@H]1C(=O)N[C@@H](Cc1ccccc1)C(=O)N[C@H](C(=O)N[C@@H](C)C(=O)NCC(=O)N[C@H](C(=O)N[C@@H](C)C(=O)N[C@@H](C)C(=O)N[C@@H](CCC(=O)O)C(=O)N[C@@H](CCSC)C(=O)N[C@@H](CCSC)C(=O)N[C@@H](CCCCN)C(=O)N[C@@H](Cc1cnc[nH]1)C(=O)N[C@H](C(=O)N[C@@H](Cc1ccc(O)cc1)C(=O)N[C@H]1CSSC[C@@H](C(=O)O)NC(=O)[C@H](CCCCN)NC(=O)[C@H](CCCCN)NC(=O)[C@H](CO)NC(=O)[C@H](C)NC(=O)[C@H](C)NC1=O)C(C)C)C(C)C)C(C)C [ILPFVAGVAAEMMKHVYCAASKKC]
